Experimental findings from US11186588B2 (AYUMI PHARMACEUTICAL CORPORATION, priority 2017, dated 2021) are described below.

For one assay, the target named is Recombinant BRD4 (44-168) protein (Homo sapiens (Human), UniProt O60885). Description: BRD4-H4KAc4 binding assay (amplified luminescence proximity homogeneous assay, AlphaScreen).
Conditions: not given
The protocol: In order to evaluate BRD4 inhibitory activity of the present compounds, BRD4-H4KAc4 binding assay was carried out by an amplified luminescence proximity homogeneous assay. The specific method is described below.
H4KAc4 peptide (available from Toray Research Center, Inc., sequence SGRGK(Ac)GGK(Ac)GLGK(Ac)GGAK(Ac)RHR-K(Biotin)-NH2) was dissolved in 1×Assay buffer to prepare 1 mM H4KAc4 peptide stock solution.
N-terminal His tag/C-terminal FLAG tag-fused type Recombinant BRD4 (44-168) protein (available from Active Motif, Cat No. 31380) was diluted with 1×Assay buffer to 1,250-fold to prepare 250 nM BRD4 solution.
1% DMSO solution (control) and 2 μL of each compound solution in each concentration were added to each well of AlphaPlate-384 (from PerkinElmer, Cat No. 6008350). Next, 2 μL of 250 nM BRD4 solution was added to each well of AlphaPlate-384. Further, 2 μL of 250 nM H4KAc4 peptide solution was added to each well of AlphaPlate-384. After addition of the 250 nM H4KAc4 peptide solution, the mixture was allowed to stand at room temperature under light shielding for 60 minutes, and 4 μL of AlphaScreen beads were added to each well of AlphaPlate-384. After addition of the AlphaScreen beads, the mixture was allowed to stand at room temperature under light shielding for 60 minutes, emission at 520-620 nm upon excitation at 680 nm was detected by EnVision multilabel counter (from PerkinElmer), and binding of BRD4 and H4KAc4 was detected. Incidentally, the evaluation of each compound was carried out in duplicate (2 well per 1 compound).
The BRD4 inhibition rate (%) was calculated by the following equation using Microsoft EXCEL 2010. BRD4 inhibition rate (%)=100−{(luminescence intensity average value of each compound added well)−(average value of luminescence intensity of blank well))/(average value of luminescence intensity of control well)−(average value of luminescence intensity of blank well)}×100
(Bead proximity is the source of the signal in Alpha formats.)
Consider `Cc1nnc2n1-c1sccc1C(c1ccc(Cl)cc1)=NN2` [Example 59, 4-(4-chlorophenyl)-9-methyl-6H-thieno[2,3-e][1,2,4]triazolo[3,4-c][1,2,4]triazepine], for which the inhibition (usually the drop in the measured response relative to a control, in per cent) at 10 µM worked out at 100%.

The same assay, now with this note: 10 uM.
In the case of `Cc1sc2c(c1C)C(c1ccc(Cl)cc1)=NNc1nnc(C)n1-2` [Example 1, 4-(4-chlorophenyl)-2,3,9-trimethyl-6H-thieno[2,3-e][1,2,4]triazolo[3,4-c][1,2,4]triazepine], the inhibition at 10 µM is 99.9%.

`COc1ccc(CN2N=C(c3ccc(Cl)cc3)c3c(sc(C)c3C)-n3c(C)nnc32)cc1` [Example 2, 4-(4-chlorophenyl)-6-(4-methoxybenzyl)-2,3,9-trimethyl-6H-thieno[2,3-e][1,2,4]triazolo[3,4-c][1,2,4]triazepine]: the inhibition at 10 µM was determined as 100%.

Take `Cc1sc2c(c1C)C(c1ccc(Cl)cc1)=NN(Cc1cccnc1)c1nnc(C)n1-2` [Example 4, 4-(4-chlorophenyl)-2,3,9-trimethyl-6-(pyridin-3-ylmethyl)-6H-thieno[2,3-e][1,2,4]triazolo[3,4-c][1,2,4]triazepine]: the inhibition at 10 µM worked out at 100%.

For `Cc1sc2c(c1C)C(c1ccc(Cl)cc1)=NN(C(=O)Nc1ccccc1)c1nnc(C)n1-2` [Example 15, 4-(4-Chlorophenyl)-2,3,9-trimethyl-N-phenyl-6H-thieno[2,3-e][1,2,4]triazolo[3,4-c][1,2,4]triazepine-6-carboxamide], the inhibition at 10 µM was 22.3%.

Regarding `Cc1sc2c(c1C)C(c1ccc(Cl)cc1)=NN(Cc1ccccc1C(F)(F)F)c1nnc(C)n1-2` [Example 17, 4-(4-chlorophenyl)-2,3,9-trimethyl-6-(2-(trifluoromethyl)benzyl)-6H-thieno[2,3-e][1,2,4]triazolo[3,4-c][1,2,4]triazepine], the inhibition at 10 µM was determined as 69.7%.

As to `Cc1sc2c(c1C)C(c1ccc(Cl)cc1)=NN(CCCc1ccccc1)c1nnc(C)n1-2` [Example 20, 4-(4-chlorophenyl)-2,3,9-trimethyl-6-(3-phenylpropyl)-6H-thieno[2,3-e][1,2,4]triazolo[3,4-c][1,2,4]triazepine], the inhibition at 10 µM is 82.2%.

On to `COc1ccc(CN2N=C(c3ccccc3)c3c(sc(C)c3C)-n3c(C)nnc32)cc1` [Example 28, 6-(4-methoxybenzyl)-2,3,9-trimethyl-4-phenyl-6H-thieno[2,3-e][1,2,4]triazolo[3,4-c][1,2,4]triazepine], for which the inhibition at 10 µM amounted to 101%.

For the molecule `Cc1sc2c(c1C)C(c1ccccc1)=NN(Cc1cccnc1)c1nnc(C)n1-2` [Example 30, 2,3,9-trimethyl-4-phenyl-6-(pyridin-3-ylmethyl)-6H-thieno[2,3-e]-[1,2,4]triazolo[3,4-c][1,2,4]triazepine], the inhibition at 10 µM amounted to 101%.

Take `Cc1sc2c(c1C)C(c1ccccc1)=NN(Cc1ccncc1)c1nnc(C)n1-2` [Example 32, 2,3,9-trimethyl-4-phenyl-6-(pyridin-4-ylmethyl)-6H-thieno[2,3-e][1,2,4]triazolo[3,4-c][1,2,4]triazepine]: the inhibition at 10 µM was found to be 100%.

Regarding `Cc1sc2c(c1C)C(c1ccc(Cl)cc1)=NN(C(=O)NCc1ccccc1)c1nnc(C)n1-2` [Example 35, N-benzyl-4-(4-chlorophenyl)-2,3,9-trimethyl-6H-thieno[2,3-e][1,2,4]triazolo[3,4-c][1,2,4]triazepine-6-carboxamide], the inhibition at 10 µM amounted to 6.6%.

Consider `Cc1sc2c(c1C)C(c1ccc(Cl)cc1)=NN(Cc1ccc(Cl)nc1)c1nnc(C)n1-2` [Example 37, 4-(4-chlorophenyl)-6-((6-chloropyridin-3-yl)methyl)-2,3,9-trimethyl-6H-thieno[2,3-e][1,2,4]triazolo[3,4-c][1,2,4]triazepine], for which the inhibition at 10 µM was 100%.

As for `COc1cccnc1CN1N=C(c2ccc(Cl)cc2)c2c(sc(C)c2C)-n2c(C)nnc21` [Example 54, 4-(4-chlorophenyl)-6-((3-methoxypyridin-2-yl)methyl)-2,3,9-trimethyl-6H-thieno[2,3-e][1,2,4]triazolo[3,4-c][1,2,4]triazepine], the inhibition at 10 µM amounted to 99.9%.

Regarding `Cc1nnc2n1-c1sccc1C(c1ccc(Cl)cc1)=NN2Cc1ccccn1` [Example 62, 4-(4-chlorophenyl)-9-methyl-6-(pyridin-2-ylmethyl)-6H-thieno[2,3-e][1,2,4]triazolo[3,4-c][1,2,4]triazepine], the inhibition at 10 µM amounted to 100%.

`COc1ccc(CN2N=C(c3ccc(Cl)cc3)c3c(C)csc3-n3c(C)nnc32)cc1` [Example 66, 4-(4-chlorophenyl)-6-(4-methoxybenzyl)-3,9-dimethyl-6H-thieno[2,3-e][1,2,4]triazolo[3,4-c][1,2,4]triazepine]: the inhibition at 10 µM was 100%.

As for `COc1ccc(CN2N=C(c3ccc(Cl)cc3)c3cccnc3-n3c(C)nnc32)cc1` [Example 67, 5-(4-chlorophenyl)-7-(4-methoxybenzyl)-10-methyl-7H-pyrido[2,3-e][1,2,4]triazolo[3,4-c][1,2,4]triazepine], the inhibition at 10 µM was determined as 100%.

For `COc1ccc(CN2N=C(c3ccc(Cl)cc3)c3c(sc(C)c3C)-n3c(CO)nnc32)cc1` [Example 68, (4-(4-chlorophenyl)-6-(4-methoxybenzyl)-2,3-dimethyl-6H-thieno[2,3-e][1,2,4]triazolo[3,4-c][1,2,4]triazepin-9-yl)methanol], the inhibition at 10 µM came to 19.2%.

With `COc1ccc(CN2N=C(c3ccc(Cl)cc3)c3c(sc(C)c3C)-n3c2nnc3C(F)(F)F)cc1` [Example 69, 4-(4-chlorophenyl)-6-(4-methoxybenzyl)-2,3-dimethyl-9-(trifluoromethyl)-6H-thieno[2,3-e][1,2,4]triazolo[3,4-c][1,2,4]triazepine], the inhibition at 10 µM is 52%.

Consider `Cc1sc2c(c1C)C(c1ccccc1Cl)=NN(Cc1cccnc1)c1nnc(C)n1-2` [Example 72, 4-(2-chlorophenyl)-2,3,9-trimethyl-6-(pyridin-3-ylmethyl)-6H-thieno[2,3-e][1,2,4]triazolo[3,4-c][1,2,4]triazepine], for which the inhibition at 10 µM came out at 100%.

Turning to `COc1ccc(C2=NN(Cc3cccnc3)c3nnc(C)n3-c3sc(C)c(C)c32)cc1` [Example 76, 4-(4-methoxyphenyl)-2,3,9-trimethyl-6-(pyridin-3-ylmethyl)-6H-thieno[2,3-e][1,2,4]triazolo[3,4-c][1,2,4]triazepine], the inhibition at 10 µM was determined as 100%.

As for `Cc1sc2c(c1C)C(c1ccc(Cl)cc1)=NN(Cc1cccnc1C(=O)O)c1nnc(C)n1-2` [Example 84, 3-((4-(4-chlorophenyl)-2,3,9-trimethyl-6H-thieno[2,3-e][1,2,4]triazolo[3,4-c][1,2,4]triazepin-6-yl)methyl)picolinic acid], the inhibition at 10 µM is 100%.

Take `CCNC(=O)c1ncccc1CN1N=C(c2ccc(Cl)cc2)c2c(sc(C)c2C)-n2c(C)nnc21` [Example 85, 3-((4-(4-chlorophenyl)-2,3,9-trimethyl-6H-thieno[2,3-e][1,2,4]triazolo[3,4-c][1,2,4]triazepin-6-yl)methyl)-N-ethylpicolinamide]: the inhibition at 10 µM amounted to 13.3%.

On to `Cc1sc2c(c1C)C(c1ccc(Cl)cc1)=NN(C(=O)Nc1ccccc1)c1nnc(C)n1-2` [Example 91, 4-(4-chlorophenyl)-2,3,9-trimethyl-N-phenyl-6H-thieno[2,3-e][1,2,4]triazolo[3,4-c][1,2,4]triazepine-6-carboxamide], for which the “BRD4-H4KAc4 binding % of inhibition@10 uM” value is 22.4%.
